Experimental data as given in patent US11583570B2, “Use of autoinducer-related pathway in inducing apoptosis and anti-infective therapy” (TSINGHUA UNIVERSITY, priority 2017, dated 2023).

What was measured:
TNFR1 (1-293) mutant = target: T1, TNFR1 (1-293) mutant (Homo sapiens, UniProt P19438); experiment: Single molecule photo-bleaching step counting (MSFQ), TNFR1 in HELA cells; type: cell-based
T1 construct: human TNFR1 (1-293) mutant was amplified from human TNFR1 with specific primers and cloned into peGFP-N1 vector; expressed in transfected cells; host or cells: HeLa cells
T1 sequence (P19438 30-293): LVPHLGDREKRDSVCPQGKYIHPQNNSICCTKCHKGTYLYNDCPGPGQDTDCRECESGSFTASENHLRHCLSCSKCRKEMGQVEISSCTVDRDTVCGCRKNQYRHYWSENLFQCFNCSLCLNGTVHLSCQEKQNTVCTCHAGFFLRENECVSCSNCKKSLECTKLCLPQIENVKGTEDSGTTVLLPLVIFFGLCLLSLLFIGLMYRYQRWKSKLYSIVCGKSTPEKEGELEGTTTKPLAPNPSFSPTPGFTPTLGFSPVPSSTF
From the text: Then the cells were stimulated with HSLs, TNF α, or left untreated, and washed twice with PBS and fixed with 4% paraformaldehyde before imaging. GFP was excited at 488 nm with a laser power of 5 mW measured after the laser passing through the objective. […] The EM gain of the EMCCD camera was set at 300. Movies of 400 frames were acquired for each sample at a full-frame rate of 10 Hz. For imaging analysis, the background fluorescence was firstly subtracted from the movie acquired from the fixed cells using the rolling ball method in Image J software, and regions of interest on movies were selected manually according to the outline of cells. To analyze the bleaching steps, the fluorescence time courses of each fluorescent spots were first constructed by Image J plugin and bleaching steps were then counted manually.

Caspase 8 and 3 = experiment: WB analysis of Caspase 8 and 3 cleavage in THP-1; type: cell-based, human; details: THP-1, 1 hr and 2 hr
Protocol: In order to verify TNFR1-FADD-caspase8-caspase3 pathway inhibitor can block immunocyte apoptosis caused by 3OC12-HSL clinically. The inventors use a clinical version of caspase inhibitor Emricasan as a test. […] To be specific, in a 12 plate, THP-1 cells were cultured with indicated concentrations of 3OC and Emricasan. After 1 hr, cells were collection for flow cytometric analysis of AnnexinV and PI. […] In FIG. 17b, live cell percentage of different treatment were enumerated by flow cytometry. Bar graphs of live cell percentage are depicted by mean±SEM. Then samples prepared as in FIG. 17a and FIG. 17b were used for WB analysis for the activation (cleavage) of Caspase 8 and 3. […] In FIG. 17c, the incubate time of the left panel is 1 hr, and the […] panel is 2 hr. (Casp 8: Caspase 8, Cld Casp 8: Cleaved-Caspase 8, Casp 3: Caspase 3, Cld Casp 3: Cleaved-Caspase 3). […] Furthermore, the inventors use B6 splenocytes (separated from C57BL/6 spleen) as the test.

THP-1 cell line = experiment: Annexin V/PI apoptosis detection, THP-1; type: cell-based, human; details: THP-1, 3OC plus Emricasan, 1 hr, AnnexinV and PI
Protocol: (§1) Cell apoptosis was detected with Annexin V/PI apoptosis detection Kit. Briefly, cells were stimulated with HSLs or left untreated. 6 hrs later, cells were collected and stained with Annexin VFITC and PI for 15 min at RT, then the apoptotic effect was measured by flow cytometry. OT-I or OT-II splenocytes were pulsed with specific peptides or PMA and ionomycin mixture with or without HSLs or TNF α plus cycloheximide. 24 hrs later, cells and supernatants were collected separately. For OT-I activation, cells were stained with CD69 and CD8. For OT-II activation, cells were stained with CD69 and CD4. Cell activation was measured by flow cytometry. All supernatants were detected for IL-2 secretion by ELISA.
(§2) In order to verify TNFR1-FADD-caspase8-caspase3 pathway inhibitor can block immunocyte apoptosis caused by 3OC12-HSL clinically. The inventors use a clinical version of caspase inhibitor Emricasan as a test. […] To be specific, in a 12 plate, THP-1 cells were cultured with indicated concentrations of 3OC and Emricasan. After 1 hr, cells were collection for flow cytometric analysis of AnnexinV and PI. […] In FIG. 17b, live cell percentage of different treatment were enumerated by flow cytometry. Bar graphs of live cell percentage are depicted by mean±SEM. Then samples prepared as in FIG. 17a and FIG. 17b were used for WB analysis for the activation (cleavage) of Caspase 8 and 3. […]

mouse splenocytes = experiment: AnnexinV and PI staining, B6 splenocytes; type: cell-based
Protocol: as §1, §2

TNFR1 = target: T2, TNFR1 (Mus musculus, UniProt P25118); experiment: Quantum dot-based single particle tracking, TNFR1; type: cell-based
T2 construct: To track individual TNFR1 on the cell membrane; endogenous in cells
T2 sequence (P25118 30-454): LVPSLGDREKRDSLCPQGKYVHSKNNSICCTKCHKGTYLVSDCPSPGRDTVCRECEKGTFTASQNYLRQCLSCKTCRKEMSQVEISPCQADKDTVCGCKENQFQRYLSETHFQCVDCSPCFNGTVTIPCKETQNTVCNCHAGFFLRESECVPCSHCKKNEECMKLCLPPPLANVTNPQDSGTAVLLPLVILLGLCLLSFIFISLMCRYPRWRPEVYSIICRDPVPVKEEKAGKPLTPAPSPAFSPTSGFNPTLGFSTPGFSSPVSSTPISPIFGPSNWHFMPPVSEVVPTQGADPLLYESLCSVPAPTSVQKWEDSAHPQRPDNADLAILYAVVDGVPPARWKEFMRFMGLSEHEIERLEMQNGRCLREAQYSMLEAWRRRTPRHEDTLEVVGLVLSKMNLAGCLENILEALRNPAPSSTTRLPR
Protocol: To track individual TNFR1 on the cell membrane, anti-TNFR1 IgG (was first papain digested to yield a Fab fragment. The Fab was then conjugated with biotin through the unique —SH at its C terminal. To prepare anti TNFR1 Fab QD conjugates, a solution of 0.7 nM anti TNFR1—Fab-biotin in 1 ml of DMEM was added drop-wise to 1 ml of 2 nM QD 605-streptavidin conjugate. Cell monolayers (50% confluent) previously serum starved for 1 hr were treated with 3OC12 HSL or left untreated and incubated with […] of the final anti TNFR1-Fab-QD solution at 25° C. for 2 min. The cells were then washed twice with PBS at 25° C., placed in serum-free medium, and loaded for imaging. For single-FcRγIIA tracking, Fc fragment was obtained by papain digestion of an anti-BSA IgG (Sigma Aldrich). Fc-QD conjugate was produced as described before. Cos-1 cells were transiently transfected with Fcγ RIIA plasmid, 24 hrs later, cells were stimulated with 3OC12 HSL or left untreated and incubated with […] of the final Fc-QD solution at 25° C. for 2 min. Quantum dot-labeled cells were imaged in TIRF mode. The fluorescence was excited at 488 nm and gated by a band-pass filter (575-640, Carl Zeiss). The excitation power was about 2 mW measured after the objective. Movies of 400 frames were acquired for each sample at a full-frame rate of 17 Hz. Individual trajectories were constructed by Utrack written in Matlab. Diffusion coefficient and plot area were calculated by customized programs written with Matlab. For motion pattern determination by MSD-t analysis 5: linear, simple Brownian diffusion; open-up parabolic, directed diffusion; open-down parabolic, restricted diffusion; and near zero, stationary.

[1] = test system: 3OC12 HSL-induced cytotoxicity; experiment: Caspase inhibitors against 3OC12 HSL cytotoxicity; type: cell-based; details: in comparison with 3OC12 HSL treatment alone
Protocol: as §1

`CCCCCC(=O)CC(=O)N[C@H]1CCOC1=O` [3-oxo-C8] was tested, and the “TNFR1 trimerization (three step quenching)” value (TNFR1 (1-293) mutant) was “failed to increase”.

In the case of TNFα, the “TNFR1 trimerization (three step quenching)” value (TNFR1 (1-293) mutant) is reported as “similarly occurred”.

For `C[C@H](NC(=O)C(=O)Nc1ccccc1C(C)(C)C)C(=O)N[C@@H](CC(=O)O)C(=O)COc1c(F)c(F)cc(F)c1F` [Emricasan], the “blocking of Caspase 8 and 3 cleavage” value (Caspase 8 and 3) was “has effect in blocking 3OC12-HSL's apoptosis mediated by Caspase”, the “blocking of 3OC12-HSL's apoptosis” value (THP-1 cell line) was “good effect in blocking 3OC12-HSL's apoptosis” and the “blocking of 3OC12-HSL's apoptosis” value (mouse splenocytes) was “good effect in blocking 3OC12-HSL's apoptosis”.

MβCD was tested, and the TNFR1 diffusion coefficient (TNFR1) was “higher diffusion coefficient” and the “TNFR1 x-y surface area coverage” value (TNFR1) was “larger area coverage”.

With Z-VAD the “effect on 3OC12 HSL cytotoxicity” value [1] was “reduced the cytotoxicity”.
